From US20230039836A1, “AROMATIC SULPHONAMIDES DERIVATIVES THAT INHIBITS PDI A3, THEIR SYNTHESIS AND USE” (Uniwersytet Jagiellonski, priority 2020, published 2023)
≈ marks a conversion by molar mass, not a printed value. Where “and” joins values, the source holds several entries; their conditions need not be identical. Equal values may be shown once. Read-outs that look alike come from different tables or passages of the source.

Columns and labels:
MCF-7 = experiment: Sulforhodamine B antiproliferative assay, 72 h, normal and hypoxia; assay type: cell-based, human; details: Homo sapiens, MCF7, 72-hour exposition
Procedure: (§1) Anticancer activity of PDI A1-inhibitors has been also tested in vitro in antiproliferative essay in normoxic and hypoxic conditions as well in estrogen-stimulated cancer cells. In the experiment, cells were seeded on 96-well plates (Sarstedt, Germany) in appropriate culture medium at a density of 10^5 cells/mL 24 h before adding the tested compounds. Cells were treated with each compound in four concentrations in the range 0.1-100 ug/mL. […] After 72 h of compound treatment at 37° C., 5 % CO2 humid atmosphere and in wo different oxygen level conditions: 21% - normal and <1% - hypoxia. In some experiments, the MDA-MB-231 and MCF-7 cells were seeded with or without 200 nM estradiol and after 24 h the tested compounds were added. A previously described sulforhodamine B antiproliferative assay was used with minor modifications (Skehan P et al., 1990). Briefly, cells were fixed with 50 µL/well of 50% (w/v) trichloroacetic acid (Avantor Performance Materials, Gliwice, Poland). After 1 h incubation, plates were washed several times with tap water and 50 µL of 0.4% (w/v) solution of sulforhodamine B (Sigma-Aldrich, Germany) in 1% (v/v) acetic acid (Avantor Performance Materials, Gliwice, Poland) was added to each well. After 30 min incubation at room temperature, unbound dye was washed out with 1% (v/v) acetic acid, whereas bound dye was solubilized with 10 mM unbuffered TRIS (Avantor Performance Materials, Gliwice, Poland) solution. The entire procedure was performed using a BioTek EL-406 washing station (BioTek Instruments, USA). After additional 30 min, absorbance was read using a Biotek Hybrid H4 reader (BioTek Instruments, USA) at 540 nm wavelength. MTT assay was used alternatively for HL-60 cell line and in the experiment in which estrogens are added (specified in the table legend). Absorbance was measured using a Biotek Hybrid H4 reader at 570 nm wavelength for MTT assay.
(§2) Compounds at each concentration were tested in triplicate in a single experiment and each experiment was repeated at least three times independently.
(§3) Results of in vitro antiproliferative effects are shown in Table 3 and Table 4 and are presented as mean IC50 ± SD calculated using the Prolab-3 system based on Cheburator 0.4 software.

MDA-MB-231 = experiment: as above; assay type: cell-based, human; details: Homo sapiens, MDA-MB-231, 72-hour exposition
Procedure: as §1, §2, §3

Caco-2 = experiment: Sulforhodamine B antiproliferative assay, 72 h; assay type: cell-based, human; details: Homo sapiens, Caco-2; normal (21% of oxygen), 72-hour exposition
Procedure: In the experiment, cells were seeded on 96-well plates (Sarstedt, Germany) in appropriate culture medium at a density of 10^5 cells/mL 24 h before adding the tested compounds. Cells were treated with each compound in four concentrations in the range 0.1-100 ug/mL. […] Briefly, cells were fixed with 50 µL/well of 50% (w/v) trichloroacetic acid (Avantor Performance Materials, Gliwice, Poland). After 1 h incubation, plates were washed several times with tap water and 50 µL of 0.4% (w/v) solution of sulforhodamine B (Sigma-Aldrich, Germany) in 1% (v/v) acetic acid (Avantor Performance Materials, Gliwice, Poland) was added to each well. After 30 min incubation at room temperature, unbound dye was washed out with 1% (v/v) acetic acid, whereas bound dye was solubilized with 10 mM unbuffered TRIS (Avantor Performance Materials, Gliwice, Poland) solution. […] After additional 30 min, absorbance was read using a Biotek Hybrid H4 reader (BioTek Instruments, USA) at 540 nm wavelength.

HT-29 = experiment: Sulforhodamine B antiproliferative assay, 72 h; assay type: cell-based, human; details: Homo sapiens, HT-29; normal (21% of oxygen), 72-hour exposition
Procedure: as §1, §2, §3

[1] = test system: Lewis Lung Carcinoma (LLC); experiment: Murine model of Lewis Lung Carcinoma; assay type: in vivo, mice
Procedure: To confirm anticancer activity of selected compounds of invention, PDI A1-inhibitors in vivo, selected compounds of invention were tested in the murine model of Lewis Lung Carcinoma (LLC). The Lewis Lung Carcinoma (LLC) cell line was obtained from the ATCC collection and was cultured in a humidified atmosphere of 5% CO2 at 37° using Dulbecco’s modified Eagle’s medium (DMEM) that contained 10% bovine serum (Sigma). Female (6-8 weeks old) C57BL/6 mice (purchased from Envigo RMS. BV., Nederland) were acclimated for one week and were fed with animal chow and water ad libitum. The C57BL/6 mice were injected s.c. with 0.5 × 10^5 LLC cells per mice in 100 µL PBS. Compounds were dissolved in DMSO and then 0.9% NaCl (DMSO final concentration 1%) were added. In each treatment group, i.p. injections of 100 µl compound were started on 1 day after tumor inoculation. Control animals injected with equal volume of 0.9% NaCl with 1% DMSO administered in the same schedule as other groups. Tumor larger radius (a) and smaller radius (b) were measured by calipers. The tumor volume (Tv) was calculated according the following formulaTv = V=4 • ab2/3. The mice in control group were sacrificed 17 days after tumor establishment. Tumor tissues were dissected, weighed and frozen in OCT compound.

[2] = test system: arterial thrombosis, right common carotid artery; experiment: Rat model of arterial thrombosis; assay type: in vivo; details: Wistar rats, FIG. 6, dose as low as
Procedure: To confirm antithrombotic activity of compounds of invention, inhibitors of PDIA1, pharmacological activity of selected compounds was tested in vivo in the rat model of arterial thrombosis . Wistar rats were anaesthetized with pentobarbital (40 mg/kg, i.p.) and placed in a supine position on a heated (37° C.) operating table. Arterial thrombosis was induced by electrical stimulation of the right common carotid artery, as previously described (Kramkowski et al., 2012). Briefly, the anode, a stainless steel L-shaped wire, was inserted under the artery and connected to a constant current generator. The cathode was attached subcutaneously to the hind limb. The artery was stimulated (1 mA) for 10 min. Fifty-five minutes after the beginning of stimulation, the segment of the common carotid artery containing the formed thrombus was dissected and opened lengthwise, and the thrombus was completely removed and air-dried at room temperature for 24 h. Thrombus was then weighed in a blinded manner.

[3] = C57BL/6 mice, LLC s.c., 75 mg/kg i.p., 5 animals
[4] = C57BL/6 mice, LLC s.c., 75 mg/kg i.p., single animals, 75 mg/kg

Structure (SMILES): CCCCc1ccc(S(=O)(=O)N2CC2C(=O)OC)cc1 (stereo not drawn) [Compound C-3257, Methyl 1-(4-butylphenyl)sulfonylaziridine-2-carboxylate]
- IC50 (MCF-7; hypoxia (<1% of oxygen), read-out: IC50 [µg/ml] MCF-7 hypoxia): 17.1 ± 7.4 µg/mL (≈ 57.5 µM)
- IC50 (MCF-7; normal (21% of oxygen), read-out: IC50 [µg/ml] MCF-7 normal): 20.8 ± 6.6 µg/mL (≈ 69.9 µM)
- IC50 (MDA-MB-231; hypoxia (<1% of oxygen), read-out: IC50 [µg/ml] MDA-MB-231 hypoxia): 13.5 ± 4 µg/mL (≈ 45.4 µM)
- IC50 (MDA-MB-231; normal (21% of oxygen), read-out: IC50 [µg/ml] MDA-MB-231 normal): 9.9 ± 2.8 µg/mL (≈ 33.3 µM)
- IC50 (Caco-2): 9.8 ± 3.8 µg/mL (≈ 33 µM)
- IC50 (HT-29): 23.8 ± 4.8 µg/mL (≈ 80 µM)
- Tumor volume average±stdev, day 10 [1, 3]: 66±147 mm3
- Tumor volume average±stdev, day 12 [1, 3]: 208±287 mm3
- Tumor volume average±stdev, day 14 [1, 3]: 462±264 mm3
- Tumor volume average±stdev, day 16 [1, 3]: 686±108 mm3
- Tumor volume average±stdev, day 17 [1, 3]: 1097±482 mm3
- Individual tumor volumes, day 10 [1, 4]: 0 mm3 (4×) and 329 mm3
- Individual tumor volumes, day 12 [1, 4]: 572 mm3 and 0 mm3 (3×) and 468 mm3
- Individual tumor volumes, day 14 [1, 4]: 594 mm3 and 0 mm3 and 537 mm3 and 657 mm3 and 523 mm3
- Individual tumor volumes, day 16 [1, 4]: 794 mm3 and 548 mm3 and 601 mm3 and 772 mm3 and 717 mm3
- Individual tumor volumes, day 17 [1, 4]: 674 mm3 and 882 mm3 and 1016 mm3 (2×) and 986 mm3
- Anti-cancer activity in vivo ([1]; LLC model, Tables 6 and 7): possess anti-cancer activity in vivo
- Dose at which effect on thrombus formation was significant and pronounced [2]: 0.03 µmol/kg
